Test system: patients with ET
Assay: Open-label extension of the Phase 2 trial (blinded six-week lead-in, week 14 assessment)
Type: in vivo, human
Experimental: After the DB part of the trial was complete, participants were able to choose to enter the Extension part of the trial. Participants who chose to enter the Extension began receiving OL study drug for up to 12 months, or start of the cross-over period, after a 43-day Extension DB Lead-in Period, whichever was earlier. During this Extension DB Lead-in Period, participants who received placebo or 60 mg in the DB part of the trial titrated up to 100 mg in a DB fashion utilizing the same dose titration regimen as in the DB part of the trial. Participants who received 100 mg in the DB part of the trial continued to receive 100 mg in a blinded fashion until all participants were receiving Compound 1 100 mg QAM as of Day 99. Participants who were unable to tolerate fixed-dose titration to 100 mg during the Extension DB Lead-in Period were discontinued from the trial and asked to attend the Safety Follow-up/EOS-E Visit. After the Extension DB Lead-in Period, participants flexibly dosed with Compound 1 (20-100 mg) QAM at the discretion of the Investigator during the Extension OL Period until the start of the cross-over period. Participants who consented to participate in the separate LTSS were able to end participation in the current study after completing the End of Treatment Visit and join the LTSS at any point during the Extension OL Period.
All participants who continued into the Extension part of the trial participated in a 43 day Extension DB Lead-in Period so all participants could be titrated to the 100-mg dose in a blinded fashion (Table 2) before receiving open-label, flexible doses of Compound 1 (20-100 mg) for up to 12 months (Days 100-459) during the Extension OL Period.
Following completion of the initial 8 weeks double-blind treatment phase of the Phase 2 trial described in Example 1, eligible patients had the option to continue their access to Compound 1 in an open-label extension phase (OLE). Participants who continued to the open label extension (OLE) phase remained blinded for a six-week lead-in phase.
In the Extension part of the trial, measures of efficacy include analysis of change from baseline to Days 70, 84, 99, 129, 159, 189, 279, 369, and 459 in modified ADL, CGI-S, TETRAS-ADL total score, TETRAS-PS total score, TETRAS UL score, TETRAS CUL score, and CGI-I and PGI-C scores at Days 70, 84, 99, 129, 159, 189, 279, 369, and 459.
A total of 65 patients who completed the double-blinded portion of the Phase 2 trial described in Example 1 were eligible to participate in the OLE and completed the week 14 assessment. FIG. 21 is a bar graph showing change in mADL11 scores from baseline, by study week from week 8 to week 14. Patients who were eligible and continued on Compound 1 (n=39) experienced an additional mean improvement in mADL11 of 1.7 points from 3.09 at Weck 8 (95% CI: 0.98, 5.2) to 4.81 (95% CI: 2.38, 7.23) after 14 weeks of treatment. Patients who switched from placebo to Compound 1 treatment during the OLE 6-week lead-in (n=26) experienced mean improvement in mADL11 of 3.15 points from 1.21 at Week 8 (95% CI: −1.04, 3.46) to 4.36 (95% CI: 1.68, 7.05.

[1] = patients who continued on Compound 1, n=39
[2] = patients who switched from placebo to Compound 1, n=26

## CC(C)(C)NC(=O)CN1CCC(CNC(=O)c2cc(F)cc(Cl)c2)CC1 [Compound 1, N-((1-(2-(tert-butylamino)-2-oxoethyl)piperidin-4-yl)methyl)-3-chloro-5-fluorobenzamide]
[1]
  Additional mean improvement in mADL11 from Week 8 to week 14: 1.7 points
  mADL11 mean improvement from baseline after 14 weeks: 4.81 points
  mADL11 mean improvement from baseline at Week 8: 3.09 points
[2]
  Mean improvement in mADL11 from Week 8 during OLE 6-week lead-in: 3.15 points
  mADL11 mean improvement from baseline after OLE 6-week lead-in: 4.36 points
Through 14 weeks of treatment
  Overall safety results: no change to the overall safety results
